Data published in the NIST ThermoML archive (doi:10.1021/acs.jced.5b00198).
Where “and” joins values, the source holds several entries; their conditions need not be identical. Identical values can stand only once.

Test: mn = molality of the nth substance listed, in mol/kg
Conditions: 101 kPa, Liquid; for viscosity: Capillary tube (Ostwald / Ubbelohde) method; for speed of sound: Frequency=3 MHz, Sing-around technique in a fixed-path interferometer; for mass density: Vibrating tube method

CCCC[N+](CCCC)(CCCC)CCCC.[I-] [tetrabutylammonium iodide] + O
Conditions	mass density, m1 = 0.01 [kg/m3]	mass density, m1 = 0.03 [kg/m3]	speed of sound, m1 = 0.01 [m/s]	speed of sound, m1 = 0.03 [m/s]	viscosity, m1 = 0.01	viscosity, m1 = 0.03
288.15 K	1001.07	1002.22	1468.9	1473.6	1.173 mPa·s and 1.171 mPa·s	1.197 mPa·s and 1.201 mPa·s and 1.205 mPa·s
293.15 K	1000.16	1001.29	1484.9	1489.1	1.006 mPa·s and 1.007 mPa·s	1.033 mPa·s and 1.025 mPa·s and 1.036 mPa·s
298.15 K	998.972	1000.09	1498.9	1502.8	0.861 mPa·s and 0.862 mPa·s	0.883 mPa·s and 0.882 mPa·s and 0.884 mPa·s
303.15 K	997.53	998.614	1511.1	1514.5	0.818 mPa·s and 0.817 mPa·s	0.83 mPa·s and 0.828 mPa·s and 0.831 mPa·s
308.15 K	995.952	997.021	1521.2	1524.4	0.731 mPa·s and 0.732 mPa·s	0.739 mPa·s and 0.744 mPa·s
